From ChEMBL document CHEMBL5532682, “Recent advances of tryptanthrin and its derivatives as potential anticancer agents” (RSC Med Chem, 2024)
pIC50: −log10 of the molar value.

Assays:
K562 [1] = test: Antiproliferative activity against human K562 cells incubated for 48 hrs; format: functional, cell-based; conditions: K562, 48 h
CT26 = test: Antiproliferative activity against mouse CT26 cells incubated for 48 hrs; format: functional, cell-based; conditions: CT26, 48 h
K562 [2] = test: Antiproliferative activity against human K562 cells; format: functional, cell-based
HeLa [3] = test: Antiproliferative activity against human HeLa cells incubated for 48 hrs; format: functional, cell-based
HepG2 [4] = test: Antiproliferative activity against human HepG2 cells assessed as inhibition of cell growth; format: functional, cell-based
NCI-H522 = test: Growth inhibition of human NCI-H522 cells assessed as reduction in cell viability; format: functional
[5] = Antiproliferative activity against human HL7702 cells measured after 48 hrs by MTT assay; format: toxicity, cell-based; conditions: HL7702 (L02) cells
M14 = test: Growth inhibition of human M14 cells assessed as reduction in cell viability; format: functional
SW-620 = test: Growth inhibition of human SW620 cells assessed as reduction in cell viability; format: functional
DU-145 = test: Growth inhibition of human DU-145 cells assessed as reduction in cell viability; format: functional
HL-60 = test: Anticancer activity against human HL-60 cells measured after 48 hrs; format: functional, cell-based; conditions: HL-60, 48 h
Hep 3B2 = test: Antiproliferative activity against human Hep3B cells measured after 48 hrs by MTT assay; format: functional, cell-based
Bel-7402 = test: Antiproliferative activity against human Bel-7402 cells measured after 48 hrs by MTT assay; format: functional, cell-based; conditions: Bel-7402, 48 h
NCI/ADR-RES [6] = test: Growth inhibition of human MCF7ADR cells assessed as reduction in cell viability; format: functional
HeLa [7] = test: Antiproliferative activity against human HeLa cells assessed as cell growth inhibition; format: functional, cell-based
HepG2 [8] = test: Antiproliferative activity against human HepG2 cells measured after 48 hrs by MTT assay; format: functional, cell-based; conditions: HepG2, 48 h
T-24 [9] = test: Antiproliferative activity against human T24 cells assessed as inhibition of cell growth; format: functional, cell-based
[10] = Antiproliferative activity against human HL7702 cells assessed as inhibition of cell growth; format: toxicity, cell-based; conditions: HL7702 (L02) cells
T-24 [11] = test: Antiproliferative activity against human T24 cells measured after 48 hrs by MTT assay; format: functional, cell-based; conditions: T-24, 48 h
SK-OV-3 = test: Antiproliferative activity against human SK-OV-3 cells assessed as inhibition of cell growth; format: functional, cell-based
MOLT-4 = test: Anticancer activity against human MOLT-4 cells measured after 48 hrs; format: functional, cell-based; conditions: MOLT-4, 48 h
A549 [12] = test: Antiproliferative activity against human A549 cells assessed as cell growth inhibition; format: functional, cell-based
K562 [13] = test: Anticancer activity against human K562 cells measured after 48 hrs; format: functional, cell-based; conditions: K562, 48 h
U-251 = test: Growth inhibition of human U-251 cells assessed as reduction in cell viability; format: functional
MGC-803 = test: Antiproliferative activity against human MGC-803 cells measured after 48 hrs by MTT assay; format: functional, cell-based; conditions: MGC-803, 48 h
PC-3 = test: Antiproliferative activity against human PC-3 cells incubated by 48 hrs by MTT assay; format: functional, cell-based; conditions: PC-3, 48 h
K562 [14] = test: Antiproliferative activity against human K562 cells incubated by 48 hrs by MTT assay; format: functional, cell-based; conditions: K562, 48 h
A549 [15] = test: Antiproliferative activity against human A549 cells assessed as inhibition of cell viability; format: functional, cell-based
MCF7 = test: Antiproliferative activity against human MCF7 cells; format: functional, cell-based
HCT-116 = test: Antiproliferative activity against human HCT-116 cells measured after 48 hrs by MTT assay; format: functional, cell-based; conditions: HCT-116, 48 h
MDA-MB-231 = test: Antiproliferative activity against human MDA-MB-231 cells measured after 48 hrs by MTT assay; format: functional, cell-based; conditions: MDA-MB-231, 48 h
WEHI3B = test: Antiproliferative activity against mouse WEHI3B cells assessed as inhibition of cell growth measured after 48 hrs; format: functional, cell-based
A549 [16] = test: Antiproliferative activity against human A549 cells measured after 48 hrs by MTT assay; format: functional, cell-based; conditions: A549, 48 h
HepG2 [17] = test: Antiproliferative activity against human HepG2 cells incubated by 48 hrs by MTT assay; format: functional, cell-based; conditions: HepG2, 48 h
A549/CDDP = test: Antiproliferative activity against human A549/DDP cells assessed as inhibition of cell viability; format: functional, cell-based
[18] = Antiproliferative activity against mouse MC3T3-E1 cells; format: toxicity, cell-based
A549 [19] = test: Antiproliferative activity against human A549 cells; format: functional, cell-based
NCI/ADR-RES [20] = test: Antiproliferative activity against human MCF7ADR cells; format: functional, cell-based
[21] = Antiproliferative activity against human HL7702 cells assessed as inhibition of cell viability; format: toxicity, cell-based; conditions: HL7702 (L02) cells
A549 [22] = test: Antiproliferative activity against human A549 cells incubated by 48 hrs by MTT assay; format: functional, cell-based; conditions: A549, 48 h

With `CC(C)NC(=O)[C@@H]1[C@@]2(c3ccccc3)[C@H]3CCCN3[C@@]3(c4ccccc4-n4c3nc3ccccc3c4=O)[C@@]12c1ccccc1` the pIC50 (K562 [1]) was 5.32, the pIC50 (CT26) was < 4.30 and the pIC50 (K562 [2]) was 5.32. The pIC50 (HeLa [3]) was < 4.30.

In the case of `O=C1c2cc(Br)ccc2-n2c1nc1ccccc1c2=O`, the pIC50 (HepG2 [4]) was 4.05, the GI50 (NCI-H522) was 5 µM and the IC50 at 48 h [5] was 50.1 µM. The GI50 (M14) was 5 µM, the GI50 (SW-620) was 4.8 µM and the GI50 (DU-145) was 2 µM. For the same compound, the pIC50 (HL-60) was 5.70, the pIC50 (Hep 3B2) was 5.70 and the pIC50 (Bel-7402) was 4.57. For the same compound, the GI50 (NCI/ADR-RES [6]) was 5 µM, the pIC50 (HeLa [7]) was < 3.82 and the pIC50 (HepG2 [8]) was 4.00. The pIC50 (T-24 [9]) was 4.03, the pIC50 [10] was 4.30 and the pIC50 (T-24 [11]) was 4.82. It also gave a pIC50 (SK-OV-3) of 4.05, a pIC50 (MOLT-4) of 5.10 and a pIC50 (A549 [12]) of 4.05. For the same compound, the pIC50 (K562 [13]) was 5.30, the GI50 (U-251) was 0.7 µM and the pIC50 (MGC-803) was 4.23.

With `O=C1c2ccccc2-n2c1nc1ccccc1c2=O` [TRYPTANTHRIN] the pIC50 (PC-3) was 4.84, the pIC50 (HepG2 [4]) was 4.05 and the IC50 at 48 h [5] was 90.1 µM. For the same compound, the pIC50 (K562 [14]) was 4.92, the pIC50 (A549 [15]) was < 4.00 and the pIC50 (MCF7) was 4.03. For the same compound, the pIC50 (HCT-116) was 4.76, the pIC50 (MDA-MB-231) was < 4.00 and the pIC50 (Bel-7402) was 4.38. It also gave a pIC50 (WEHI3B) of 5.82, a pIC50 (A549 [16]) of 4.13 and a pIC50 (HepG2 [17]) of 5.02. The pIC50 (HeLa [7]) was < 3.82, the pIC50 (HepG2 [8]) was 4.05 and the pIC50 (A549/CDDP) was < 4.00. For the same compound, the pIC50 [18] was < 4.00, the pIC50 (T-24 [9]) was < 3.82 and the pIC50 [10] was 4.05. For the same compound, the pIC50 (T-24 [11]) was < 3.82, the pIC50 (SK-OV-3) was 4.07 and the pIC50 (A549 [19]) was 4.13. For the same compound, the pIC50 (NCI/ADR-RES [20]) was 4.02, the pIC50 [21] was < 4.00 and the pIC50 (A549 [12]) was < 3.82. For the same compound, the pIC50 (A549 [22]) was 5.08 and the pIC50 (MGC-803) was 4.15.
